Measured values as given in patent US20230346948A1, “Lipid conjugated peptide inhibitors of PICK1” (University of Copenhagen, priority 2020, published 2023).
Where “and” joins values, the source holds several entries; their conditions need not be identical. Equal values may be shown once. Entries after “also recorded” stand apart in the source; their conditions may differ. Read-outs that look alike come from different tables or passages of the source.

Tests used:
[1] = system: inflammatory pain (CFA model); assay: Complete Freund's Adjuvant (CFA) model of inflammatory pain, von Frey; type: in vivo, mice; settings: for relief of evoked pain (paw withdrawal threshold): day 2 after CFA
Procedure: Inflammatory pain: Animals were habituated to the experimental room for a minimum of 60 min before initiation of the experiment. Mechanical pain threshold was determined by von Frey measurements of both hind paws. Injury was induced on the right hind paw, whereas the contralateral left hind paw was used as internal control of the animal. Von Frey filaments ranging from 0.04 to 2 g (g=gram-forces) (0.04, 0.07, 0.16, 0.4, 0.6, 1.0, 1.4, 2.0) were used for determination of mechanical pain threshold. In the current experiment filaments in ascending order were applied to the frontocentral plantar surface of the hind paws. Mice were placed in PVC plastic boxes (11.5 cm×14 cm) on a wire mesh, and allowed 30 min habituation prior of […]. Each von Frey hair was applied five times with adequate resting periods between each application and number of withdrawals recorded. The withdrawal threshold was determined as the von Frey filament eliciting at least 3 positive trials out of the 5 applications in two consecutive filaments. A positive trial was defined as sudden paw withdrawal, flinching and/or paw licking induced by the filament. The inflammatory pain was induced by injection of 50 μL undiluted Complete Freund's Adjuvant (CFA) (F5881, Sigma) unilaterally into the intraplantar surface of the right hind paw, whereas control mice were injected with the same amount of 0.9% saline (B. Braun, Germany). All intraplantar injections were performed with and insulin needle (0.3 mL BD Micro-Fine) while the animal was under isoflurane anesthesia (2%) for maximum 60 seconds. Von Frey was applied up to 11 days after unilateral CFA injection depending on the experiment. […] Statistical analysis was performed using GraphPad Prism 6.0. Two-way RM ANOVA followed by Bonferroni's post-hoc test. Significance level set to p<0.05.
Inflammatory pain (CFA model): Animals were habituated to the experimental room for a minimum of 60 min before initiation of the experiment. Mechanical pain threshold was determined by von Frey measurements of both hind paws. Injury was induced on the right hind paw, whereas the contralateral left hind paw was used as internal control of the animal.
Von Frey filaments ranging from 0.04 to 2 g (g=gram-forces) (0.04, 0.07, 0.16, 0.4, 0.6, 1.0, 1.4, 2.0) were used for determination of mechanical pain threshold. In the current experiment filaments in ascending order were applied to the frontocentral plantar surface of the hind paws. Mice were placed in PVC plastic boxes (11.5 cm×14 cm) on a wire mesh, and allowed 30 min habituation prior of testing. Each von Frey hair was applied five times with adequate resting periods between each application and number of withdrawals recorded. The withdrawal threshold was determined as the von Frey filament eliciting at least 3 positive trials out of the 5 applications in two consecutive filaments. A positive trial was defined as sudden paw withdrawal, flinching and/or paw licking induced by the filament.
The inflammatory pain was induced by injection of 50 μL undiluted Complete Freund's Adjuvant (CFA) (F5881, Sigma) unilaterally into the intraplantar surface of the right hind paw, whereas control mice were injected with the same amount of 0.9% saline (B. Braun, Germany). All intraplantar injections were performed with an insulin needle (0.3 mL BD Micro-Fine) while the animal was under isoflurane anesthesia (2%) for maximum 60 seconds. Von Frey was applied up to 6 days after unilateral CFA injection depending on the experiment. The peptides were administered s.c. (10 μL/g)), and at different concentrations (0.4 and 2 μmol/kg). Statistical analysis was performed using GraphPad Prism 6.0. Two-way RM ANOVA followed by Dunnett's post-hoc test. Significance level set to p<0.05.

[2] = system: diabetic neuropathy (STZ model); settings: for maximum reversal of mechanical response threshold: 2 h post-administration
Procedure: Diabetic neuropathy (STZ) model. Diabetes is induced by a single IP injection of […]. Streptozocin solution (100 μl/10 g, Sigma-aldrich S0130, batch #WXBB7152V). Glycemia is tested before, and 7 days after injection.
The mechanical threshold response of the operated mice was measured with calibrated von Frey filaments (“up/down” method) and the 50% threshold (g) was calculated. The experimenter was blinded to mice treatment. […] Compounds were diluted in PBS (vehicle) and administered s.c. at 10 μL/g, in doses as indicated (gabapentine, 5MPK). Statistical analysis was performed using GraphPad Prism 6.0.

[3] = Solubility by visual inspection in PBS; type: physicochemical
[4] = system: thermal hypersensitivity (CFA model); assay: Hargreaves test, thermal hypersensitivity in CFA model; type: in vivo, mice; settings: s.c. 10 μmol/kg
Procedure: Inflammatory pain (CFA model): Animals were habituated to the experimental room for a minimum of 60 min before initiation of the experiment. Hargreave's test was performed by application of radiant heat light to the plantar surface of both hindpaw. The response latency was measured by an automated readout (Ugo Basile, Italy). The baseline paw withdrawal latency of both hind paws in response to radiant heat stimulation was performed before CFA injection, and no difference between the two pre-selected groups was found. The inflammatory pain was induced by […] of 50 μL undiluted Complete Freund's Adjuvant (CFA) ([…], Sigma) unilaterally into the intraplantar surface of the right hind paw, whereas control mice were injected with the same amount of 0.9% saline (B. Braun, Germany). All intraplantar injections were performed with and insulin needle (0.3 mL BD Micro-Fine) while the animal was under isoflurane anesthesia (2%) for maximum 60 seconds. On day 3 after CFA injection, mice were placed in individual red cylinders (8 cm in diameter, 7.5 cm tall) and thermal hyperalgesia was confirmed by a baseline reading with IR of 20. Three measurements were performed on each hindpaw of each mouse. A positive trial was defined as sudden paw withdrawal, flinching and/or paw licking induced by the infrared light. Measurements were performed before CFA injection, and at 3+4 days after CFA injection. At day 3, the measurements were performed before treatment, as well as 1, 5 and 21 hours after treatment. Peptide and vehicle were administered s.c. (10 μL/g)), and at a concentration of 0 or 10 μmol/kg. Statistical analysis was performed using GraphPad Prism 6.0. Two-way RM ANOVA followed by Bonferroni's post-hoc test. Significance level set to p<0.05.

CCCCCCCCCCCCCC(=O)N(CCOCCOCCC(=O)N[C@@H](Cc1c[nH]cn1)C(=O)N[C@@H](Cc1c[nH]c2ccccc12)C(=O)N[C@@H](CC(C)C)C(=O)N[C@@H](CCCCN)C(=O)N[C@H](C(=O)O)C(C)C)CCOCCOCCC(=O)N[C@@H](Cc1c[nH]cn1)C(=O)N[C@@H](Cc1c[nH]c2ccccc12)C(=O)N[C@@H](CC(C)C)C(=O)N[C@@H](CCCCN)C(=O)N[C@H](C(=O)O)C(C)C [myr-NPEG4-(HWLKV)2]
paw withdrawal threshold of uninjured contralateral paw ([1]; CFA model, Example 7): remained unaltered
relief of evoked pain (paw withdrawal threshold) ([1]; intrathecal 20 μM, 7 μL, 1 and 5 h): significant pain relief at 1 hour and 5 hours
relief of evoked pain (paw withdrawal threshold) ([1]; intrathecal 20 μM, 7 μL, 24 h): no effect 24 hours after administration
relief of evoked pain (paw withdrawal threshold), lipid variants ([1]; s.c. 2.0 μmol/kg in PBS, day 2-5 after CFA, tested 2 and 5 h): full and highly significant pain relief
relief of evoked pain (paw withdrawal threshold) ([1]; s.c. 2 μmol/kg, tested 1, 5, 24 h): significant pain relief when tested 1 hour post injection
relief of evoked pain (paw withdrawal threshold), PDZ motif variants ([1]; s.c. 2 μmol/kg, day 5 after CFA): relieved pain
relief of evoked pain (paw withdrawal threshold) ([1]; s.c. 10 μmol/kg, tested 1, 5, 24 h): significant pain relief when tested 1 hour post injection
relief of evoked pain (paw withdrawal threshold) ([1]; s.c. 50 μmol/kg, tested 1, 5, 24 h): significant pain relief when tested 1 hour post injection; also recorded: significant pain relief up to 5 hours post injection
analgesic effect ([2]; s.c. 2 μmol/kg): weaker effect
maximum reversal of mechanical response threshold ([2]; s.c. 2 μmol/kg): 49.2±7.9 % of baseline
analgesic effect ([2]; s.c. 10 μmol/kg): strong and long-lasting effect up to 4 h
maximum reversal of mechanical response threshold ([2]; s.c. 10 μmol/kg): 67.3±4.5 % of baseline
solubility [3]: ≥ 130000 µM and 250000 µg/mL
pain relief (paw withdrawal latency), sensitized paw ([4]; 5 hours): less pronounced
paw withdrawal latency, contralateral (healthy) paw ([4]; day 3 after CFA): no significant changes
paw withdrawal latency, sensitized (ipsilateral) paw ([4]; day 3 after CFA): highly significant increase in paw withdrawal latency
pain relief (paw withdrawal latency), sensitized paw ([4]; following day (21 h)): fully dissolved
